“Also recorded” adds a separate entry of the source.
How the values were obtained:
[1] = test system: HPDE6c7 cells; assay: Assay (B): inhibition of forskolin-induced GJIC, Lucifer yellow dye transfer, PAH given only at time −30 min; conditions: for GJIC, Average (% change over control at −30 min), −30 min / GJIC, Average (% change over control at −30 min), 0 hr / GJIC, Average (% change over control at −30 min), 24 hr / GJIC, Average (% change over control at −30 min), 48 hr / GJIC, Average (% change over control at −30 min), 72 hr: 70 μM PAH given at time −30 min only; for GJIC, Average (% change over control at −30 min), −30 min: at time of addition; for GJIC, Average (% change over control at −30 min), 0 hr / GJIC, Average (% change over control at −30 min), 24 hr / GJIC, Average (% change over control at −30 min), 48 hr / GJIC, Average (% change over control at −30 min), 72 hr: forskolin 5 μM
[2] = test system: HPDE6c7 cells; assay: Assay (A): inhibition of forskolin-induced GJIC, Lucifer yellow dye transfer, PAH given at every medium change; assay type: cell-based, human; conditions: for GJIC, Average (% change over control at −30 min), −30 min / GJIC, Average (% change over control at −30 min), 0 hr / GJIC, Average (% change over control at −30 min), 24 hr / GJIC, Average (% change over control at −30 min), 48 hr / GJIC, Average (% change over control at −30 min), 72 hr: 70 μM PAH given at every medium change; for GJIC, Average (% change over control at −30 min), −30 min: at time of addition; for GJIC, Average (% change over control at −30 min), 0 hr / GJIC, Average (% change over control at −30 min), 24 hr / GJIC, Average (% change over control at −30 min), 48 hr / GJIC, Average (% change over control at −30 min), 72 hr: forskolin 5 μM; for inhibition of GJIC induced by forskolin: 70 μM, PAH at every medium change
[3] = test system: HPDE6c7 cells; assay: GJIC competence under c-AMP elevating agents, Lucifer yellow dye transfer; assay type: cell-based, human; conditions: in KBM, 48 hours
Method: The ability of the HPDE6c7 cells to communicate via gap junctions under various growth conditions was measured using the lucifer yellow dye transfer method as developed by El-Fouly et al. (Exp. Cell Res. 168: 422-430 (1987)). Briefly, near confluent cultures of the cells grown as in Example 1 were subjected to the desired treatment, either growth in KBM or KBM containing c-AMP elevating agents such as forskolin or forskolin and 3-isobutyl-1-methylxanthine (IBMX), both from Sigma Chemical Co., St. Louis, Mo. Then, lucifer yellow was loaded into the cells by making two or three scrape lines in the monolayer with a sharp scalpel. […] Quantifying the extent of communication was done using an image analysis program.

[4] = test system: HPDE6c7 cells; assay: Induction of insulin production / release into the media; assay type: cell-based, human; conditions: for synthesis and release of insulin / appearance of insulin in the media: preliminary data
[5] = test system: insulin promoter in HPDE6c7 cells; assay: Insulin promoter activity, AdINSGFP (GFP under insulin promoter) infected cells; assay type: cell-based, human
Method: To determine whether the insulin promoter in the HPDE6c7 cells is active, the cells were infected with adenovirus AdINSGFP, a virus vector that expresses the Green Fluorescence Protein (GFP) under the regulation of the insulin promoter.
Nicotinamide is known to affect cell differentiation. Therefore, the effect of nicotinamide on the activity of the insulin promoter in HPDE6c7 cells was determined. The […] cells were plated on plastic cell culture dishes for two days. Then the cells were infected with about 50 pfu/cell AdINSGFP for one hour. Afterwards, the cells were washed and incubated for three days in KBM containing 10 mM nicotinamide.

[6] = test system: HPDE6c7 cells; assay: Growth of cells in culture with growth factors; assay type: cell-based, human

Cc1cccc2cc3ccccc3cc12 [1-MeA, 1-methylanthracine]
GJIC, Average (% change over control at −30 min), −30 min [1]: 100.00% | GJIC, Average (% change over control at −30 min), 0 hr [1]: 77.04% | GJIC, Average (% change over control at −30 min), 24 hr [1]: 233.32% | GJIC, Average (% change over control at −30 min), 48 hr [1]: 246.93% | GJIC, Average (% change over control at −30 min), 72 hr [1]: 261.32% | lethal effects on the cells / cytotoxicity ([1]; 70 μM, PAH at −30 min only): no lethal effects; also recorded: not cytotoxic | reversibility of the inhibition of GJIC ([1]; 70 μM, PAH at −30 min only): reversible | GJIC, Average (% change over control at −30 min), −30 min [2]: 100.00% | GJIC, Average (% change over control at −30 min), 0 hr [2]: 89.37% | GJIC, Average (% change over control at −30 min), 24 hr [2]: 92.24% | GJIC, Average (% change over control at −30 min), 48 hr [2]: 81.77% | GJIC, Average (% change over control at −30 min), 72 hr [2]: 212.39% | inhibition of GJIC induced by forskolin [2]: inhibited GJIC that had been induced by forskolin

Cc1ccc2cc3ccccc3cc2c1 [2-MeA, 2-methylanthracine]
GJIC, Average (% change over control at −30 min), −30 min [1]: 100.00% | GJIC, Average (% change over control at −30 min), 0 hr [1]: 89.95% | GJIC, Average (% change over control at −30 min), 24 hr [1]: 265.70% | GJIC, Average (% change over control at −30 min), 48 hr [1]: 260.89% | GJIC, Average (% change over control at −30 min), 72 hr [1]: 260.89% | GJIC, Average (% change over control at −30 min), −30 min [2]: 100.00% | GJIC, Average (% change over control at −30 min), 0 hr [2]: 102.06% | GJIC, Average (% change over control at −30 min), 24 hr [2]: 197.60% | GJIC, Average (% change over control at −30 min), 48 hr [2]: 227.15% | GJIC, Average (% change over control at −30 min), 72 hr [2]: 271.19% | inhibition of GJIC induced by forskolin [2]: did not

C=C[C@@]1(C)CC(=O)[C@]2(O)[C@@]3(C)[C@@H](O)CCC(C)(C)[C@@H]3[C@H](O)[C@H](OC(C)=O)[C@@]2(C)O1 [forskolin]
increase in GJIC relative to complete keratinocyte serum-free medium (KSFM) [3]: 2.2 fold

NC(=O)c1cccnc1 [nicotinamide]
induction of insulin production [4]: induce the HPDE6c7 cells to produce insulin | synthesis and release of insulin / appearance of insulin in the media [4]: appear to synthesize and release insulin | activation of the insulin promoter (GFP expressing cells) ([5]; 10 mM in KBM, three days): induces a substantial number of cells to activate the insulin promoter

cholera toxin
induction of insulin production [4]: induce the HPDE6c7 cells to produce insulin

hepatocyte growth factor: growth factor (mitogen)
growth of the cells [6]: an increase in growth of the cells | synthesis and release of insulin / appearance of insulin in the media [4]: appear to synthesize and release insulin

sonic hedgehog
induction of insulin production [4]: induce the HPDE6c7 cells to produce insulin | turning on the promoter for the insulin gene [5]: can turn on the promoter for the insulin gene

B1: beta-cellulin: growth factor (mitogen) (protein, UniProt P35070 32-111, looked up)
Betacellulin: DGNSTRSPETNGLLCGDPEENCAATTTQSKRKGHFSRCPKQYKHYCIKGRCRFVVAEQTPSCVCDEGYIGARCERVDLFY
growth of the cells [6]: an increase in growth of the cells
